Data from patent publication US20190167811A1, “LIPID COMPOSITIONS AND THEIR USES FOR INTRATUMORAL POLYNUCLEOTIDE DELIVERY” (ModernaTX, Inc., priority 2016, published 2019).

Assay: Plasma and liver pharmacokinetics of LNP formulated mRNAs
Format: in vivo
Method: The plasma and liver pharmacokinetics of a lipid formulation (LNP) containing Compound 18 and an mRNA encoding a protein of interest was studied. The concentrations of Compound 18 in plasma after a single IV infusion are shown FIG. 28. The concentration of Compound 18 decreased quickly within about 12 hours.
The concentrations of Compound 18 in liver tissues after weekly dosing were measured at day 1, day 8, and day 15.

time within which the concentration of Compound 18 in plasma decreased quickly (single IV infusion of LNP containing Compound 18 and mRNA): ≤ 12 h | concentration of Compound 18 in liver tissues (weekly dosing, measured at day 1, day 8, day 15, at four hours after each weekly dosing): decreased significantly
SMILES: CCCCCCCCCOC(=O)CCCCCCCN(CCO)CCCCCCCC(=O)OC(CCCCCCCC)CCCCCCCC [Compound 18, Heptadecan-9-yl 8-((2-hydroxyethyl)(8-(nonyloxy)-8-oxooctyl)amino) octanoate]
